Assay [1] concerns the target SMARCA4 (Homo sapiens, UniProt P51532). In words: HiBiT assay for protein degradation, Hela SMARCA4-HiBiT cells (A series). In kind it is cell-based. More on the design: fuse HiBiT to the carboxy terminus of SMARCA2 (Promega CS302365) or SMARCA4 (Promega CS3023225); host or cells: HeLa (CRISPR/Cas9 HiBiT knock-in). Conditions: Hela SMARCA4-HiBiT cells, 24 hours treatment; for DC50: read-out: SMARC A4 Hela HiBit DC50. An outline of the steps: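 HeLa cells engineered by CRISPR/Cas9 to carry a HiBiT tag fused to the C-terminus of SMARCA4 (Promega CS3023225) were grown in DMEM supplemented with FBS and penicillin-streptomycin. After compound exposure, remaining SMARCA4 protein was quantified using the Nano-Glo® HiBiT Lytic Detection Assay (Promega N3050), and curves were fitted in GraphPad Prism.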

Assay [2] addresses SMARCA2 (Homo sapiens, UniProt P51531). In words: HiBiT assay for protein degradation, Hela SMARCA2-HiBiT cells (A series).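 For SMARC A2 Hela HiBit Dmax (%): 24 h compound treatment.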 Type of assay: cell-based. More on the design: Hela cells were genetically modified via CRISPR/Cas9 to fuse HiBiT to the carboxy terminus of SMARCA2; host or cells: HeLa (CRISPR/Cas9 HiBiT knock-in). Conditions: for DC50: read-out: SMARC A2 Hela HiBit DC50; for Dmax: read-out: SMARC A2 Hela HiBit Dmax (%). An outline of the steps: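 HeLa cells engineered by CRISPR/Cas9 to carry a HiBiT tag fused to the C-terminus of SMARCA2 (Promega CS302365) were grown in DMEM supplemented with FBS and penicillin-streptomycin. After treatment, remaining SMARCA2 protein was quantified with the Nano-Glo® HiBiT Lytic Detection Assay (Promega N3050), and curves were fitted in GraphPad Prism.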
(With HiBiT, luminescence reflects the tagged protein that the partner subunit can reach.)

Where [3] appears, read: Hela SMARCA2-HiBiT cells, 24 hours treatment.
Setting [4] is: read-out: SMARC A4 Hela HiBit Dmax.

Read-outs that look alike come from different tables or passages of the source. A value given as a limit tells only on which side of the number the result lay.

Chain of SMARCA2 (P51531 whole entry, the tested form may be a part): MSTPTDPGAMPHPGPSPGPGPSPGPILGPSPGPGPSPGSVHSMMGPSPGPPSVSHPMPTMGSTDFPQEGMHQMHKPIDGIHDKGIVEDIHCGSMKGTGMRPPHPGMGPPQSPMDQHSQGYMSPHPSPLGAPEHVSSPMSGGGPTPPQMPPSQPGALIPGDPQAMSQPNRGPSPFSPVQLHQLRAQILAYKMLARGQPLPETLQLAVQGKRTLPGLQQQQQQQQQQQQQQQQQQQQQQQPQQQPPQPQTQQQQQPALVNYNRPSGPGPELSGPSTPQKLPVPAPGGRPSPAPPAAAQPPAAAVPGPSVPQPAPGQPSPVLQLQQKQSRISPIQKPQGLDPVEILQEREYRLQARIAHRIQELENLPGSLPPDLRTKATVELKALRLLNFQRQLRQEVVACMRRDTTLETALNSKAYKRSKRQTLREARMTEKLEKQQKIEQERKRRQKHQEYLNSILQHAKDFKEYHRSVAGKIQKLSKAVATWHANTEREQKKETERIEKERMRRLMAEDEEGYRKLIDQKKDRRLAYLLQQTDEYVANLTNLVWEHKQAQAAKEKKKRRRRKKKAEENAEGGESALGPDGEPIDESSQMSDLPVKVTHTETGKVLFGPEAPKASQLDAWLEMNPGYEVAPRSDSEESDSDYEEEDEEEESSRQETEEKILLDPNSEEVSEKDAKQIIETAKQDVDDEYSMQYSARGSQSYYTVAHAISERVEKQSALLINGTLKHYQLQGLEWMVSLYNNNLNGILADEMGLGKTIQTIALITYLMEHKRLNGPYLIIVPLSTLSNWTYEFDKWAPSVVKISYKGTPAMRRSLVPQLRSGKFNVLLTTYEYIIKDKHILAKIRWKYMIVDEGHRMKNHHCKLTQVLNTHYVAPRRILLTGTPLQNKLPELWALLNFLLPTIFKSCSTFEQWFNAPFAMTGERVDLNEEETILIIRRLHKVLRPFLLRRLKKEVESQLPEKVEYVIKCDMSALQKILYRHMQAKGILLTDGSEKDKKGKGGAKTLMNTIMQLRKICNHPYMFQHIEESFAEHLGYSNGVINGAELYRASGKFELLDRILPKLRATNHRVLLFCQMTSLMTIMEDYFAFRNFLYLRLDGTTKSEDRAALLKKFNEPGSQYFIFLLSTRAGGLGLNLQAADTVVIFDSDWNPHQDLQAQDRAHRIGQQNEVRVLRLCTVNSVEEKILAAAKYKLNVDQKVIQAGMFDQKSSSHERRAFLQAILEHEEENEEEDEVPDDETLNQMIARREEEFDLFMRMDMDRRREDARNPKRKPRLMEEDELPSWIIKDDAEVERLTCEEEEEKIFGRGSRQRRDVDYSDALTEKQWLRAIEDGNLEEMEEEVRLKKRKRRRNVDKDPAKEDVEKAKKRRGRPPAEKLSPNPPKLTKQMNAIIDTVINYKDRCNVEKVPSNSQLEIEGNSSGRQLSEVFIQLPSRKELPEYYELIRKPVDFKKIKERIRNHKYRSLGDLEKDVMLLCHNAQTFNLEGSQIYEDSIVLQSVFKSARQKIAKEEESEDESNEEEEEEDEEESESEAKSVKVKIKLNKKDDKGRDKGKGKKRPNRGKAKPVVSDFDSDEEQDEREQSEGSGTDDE
Chain of SMARCA4 (P51532 whole entry, the tested form may be a part): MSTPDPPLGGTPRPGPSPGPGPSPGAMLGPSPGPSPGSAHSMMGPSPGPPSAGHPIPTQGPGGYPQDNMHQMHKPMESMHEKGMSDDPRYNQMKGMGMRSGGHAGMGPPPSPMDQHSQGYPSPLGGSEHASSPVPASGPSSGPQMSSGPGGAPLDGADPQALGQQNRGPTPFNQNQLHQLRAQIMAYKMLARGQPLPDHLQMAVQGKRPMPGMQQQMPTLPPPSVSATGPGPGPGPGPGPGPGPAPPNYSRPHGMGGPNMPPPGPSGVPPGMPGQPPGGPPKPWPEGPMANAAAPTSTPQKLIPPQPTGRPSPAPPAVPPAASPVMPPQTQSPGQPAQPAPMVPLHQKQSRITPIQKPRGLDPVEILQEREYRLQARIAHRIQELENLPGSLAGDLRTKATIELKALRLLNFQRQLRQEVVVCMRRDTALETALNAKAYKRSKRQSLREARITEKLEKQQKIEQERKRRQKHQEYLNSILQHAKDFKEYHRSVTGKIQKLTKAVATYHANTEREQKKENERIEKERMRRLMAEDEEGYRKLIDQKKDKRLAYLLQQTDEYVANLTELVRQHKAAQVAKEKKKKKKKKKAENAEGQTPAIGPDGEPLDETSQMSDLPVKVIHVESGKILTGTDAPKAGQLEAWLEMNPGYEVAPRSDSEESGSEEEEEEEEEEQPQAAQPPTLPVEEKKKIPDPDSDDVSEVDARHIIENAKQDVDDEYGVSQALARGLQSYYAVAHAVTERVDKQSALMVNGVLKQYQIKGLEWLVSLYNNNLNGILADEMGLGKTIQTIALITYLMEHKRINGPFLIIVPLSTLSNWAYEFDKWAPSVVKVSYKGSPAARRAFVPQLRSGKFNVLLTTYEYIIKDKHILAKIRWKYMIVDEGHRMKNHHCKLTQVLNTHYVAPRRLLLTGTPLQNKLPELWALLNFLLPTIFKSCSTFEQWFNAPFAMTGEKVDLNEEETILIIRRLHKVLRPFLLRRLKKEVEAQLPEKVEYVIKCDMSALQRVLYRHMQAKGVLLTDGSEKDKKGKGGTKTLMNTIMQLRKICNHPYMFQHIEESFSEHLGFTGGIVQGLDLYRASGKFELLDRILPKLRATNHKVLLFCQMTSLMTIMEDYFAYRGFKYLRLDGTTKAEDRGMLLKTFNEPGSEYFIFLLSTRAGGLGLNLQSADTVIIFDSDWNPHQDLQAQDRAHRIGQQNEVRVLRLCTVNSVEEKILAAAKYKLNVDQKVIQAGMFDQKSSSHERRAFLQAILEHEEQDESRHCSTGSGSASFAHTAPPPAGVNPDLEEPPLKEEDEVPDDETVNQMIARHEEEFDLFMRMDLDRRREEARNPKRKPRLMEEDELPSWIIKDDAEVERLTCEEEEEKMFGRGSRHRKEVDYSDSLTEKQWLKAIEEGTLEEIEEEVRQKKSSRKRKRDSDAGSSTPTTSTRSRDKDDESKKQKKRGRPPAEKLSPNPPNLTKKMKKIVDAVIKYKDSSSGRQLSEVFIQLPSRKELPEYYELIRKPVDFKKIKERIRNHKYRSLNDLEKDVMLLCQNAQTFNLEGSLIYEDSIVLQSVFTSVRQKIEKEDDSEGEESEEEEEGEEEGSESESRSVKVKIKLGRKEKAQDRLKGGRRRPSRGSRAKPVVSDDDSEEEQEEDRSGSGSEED

One may read the DC50 as the concentration at which degradation of the target reaches its halfway point. Broadly, the Dmax is the greatest extent of degradation seen. On to `Cc1ncsc1-c1ccc([C@H](C)NC(=O)[C@@H]2C[C@@H](O)CN2C(=O)[C@@H](n2cc(CN3CCC(c4ccc5c(c4)C4(CCCCC4)c4nc(=O)c6c(Br)cccc6n4-5)CC3)nn2)C(C)(C)C)cc1` [Compound A53, (2S,4R)-1-((S)-2-(4-((4-(4′-bromo-5′-oxo-5′H-spiro[cyclohexane-1,7′-indolo[1,2-a]quinazolin]-9′-yl)piperidin-1-yl)methyl)-1H-1,2,3-triazol-1-yl)-3,3-dimethylbutanoyl)-4-hydroxy-N—((S)-1-(4-(4-methylthiazol-5-yl)phenyl)ethyl)pyrrolidine-2-carboxamide], for which the 50% degradation concentration (DC50) in assay [1] and in assay [2] (setting [3]) was less than 100 nM in each case. The maximal degradation (Dmax) in assay [1] (read-out: SMARC A4 Hela HiBit Dmax(%)) and in assay [2] (setting [3]) was greater than 90% in each case.

Consider `Cc1ncsc1-c1ccc([C@H](CN2CCOCC2)NC(=O)[C@@H]2C[C@@H](O)CN2C(=O)[C@H](C2CCOCC2)n2cc([C@H]3CC[C@H](CN4CCC(c5ccc6c(c5)-n5c(nc(=O)c7c(Cl)cccc75)C6(C)C)CC4)CC3)nn2)cc1` [Compound A102, (2S,4R)-1-((S)-2-(4-((1r,4S)-4-((4-(4-chloro-7,7-dimethyl-5-oxo-5,7-dihydroindolo[1,2-a]quinazolin-10-yl)piperidin-1-yl)methyl)cyclohexyl)-1H-1,2,3-triazol-1-yl)-2-(tetrahydro-2H-pyran-4-yl)acetyl)-4-hydroxy-N-((R)-1-(4-(4-methylthiazol-5-yl)phenyl)-2-morpholinoethyl)pyrrolidine-2-carboxamide], for which the half-maximal degradation concentration (DC50) in assay [1] is greater than 1000 nM; in assay [2] (setting [3]) it was less than 10 nM. In addition, the Dmax in assay [1] (setting [4]) was 50 to 69%; in assay [2] (setting [3]), greater than 90%.

As for `Cc1ncsc1-c1ccc([C@H](C)NC(=O)[C@@H]2C[C@@H](O)CN2C(=O)[C@H](C2CCOCC2)n2cc([C@H]3CC[C@H](CN4CCC(c5ccc6c(c5)-n5c(nc(=O)c7c(Cl)cccc75)C65CCCCC5)CC4)CC3)nn2)cc1` [Compound A120, (2S,4R)-1-((S)-2-(4-((1r,4S)-4-((4-(4′-chloro-5′-oxo-5′H-spiro[cyclohexane-1,7′-indolo[1,2-a]quinazolin]-10′-yl)piperidin-1-yl)methyl)cyclohexyl)-1H-1,2,3-triazol-1-yl)-2-(tetrahydro-2H-pyran-4-yl)acetyl)-4-hydroxy-N—((S)-1-(4-(4-methylthiazol-5-yl)phenyl)ethyl)pyrrolidine-2-carboxamide], the “SMARC A4 Hela HiBit DC50(nM)” value in assay [1] was “No fit”. Besides, the greatest degradation seen (Dmax) in assay [1] (setting [4]) was 50 to 69%. In addition, in assay [2] (setting [3]), the 50% degradation concentration (DC50) is less than 10 nM and the greatest degradation seen (Dmax) was greater than 90%.

Regarding `Cc1ccncc1-c1ccc([C@H](CN2CCOCC2)NC(=O)[C@@H]2C[C@@H](O)CN2C(=O)[C@@H](n2cc([C@H]3CC[C@H](CN4CCC(c5ccc6c(c5)-n5c(nc(=O)c7c(Cl)cccc75)C65CCCCC5)CC4)CC3)nn2)C(C)(C)C)cc1` [Compound A175], the DC50 in assay [1] was greater than 1000 nM; in assay [2] (setting [3]), less than 10 nM. In addition, the greatest degradation seen (Dmax) is less than 50% in assay [1] (setting [4]) and greater than 90% in assay [2] (setting [3]).

As for `Cc1ncsc1-c1ccc([C@H](CN2CCOCC2)NC(=O)[C@@H]2C[C@@H](O)CN2C(=O)[C@H](C2CCCCC2)n2cc(-c3ccc(CN4CCC(c5ccc6c(c5)-n5c(nc(=O)c7c(Br)cccc75)C65CCCCC5)CC4)cc3)nn2)cc1` [Compound A128, (2S,4R)-1-((S)-2-(4-(4-((4-(4′-bromo-5′-oxo-5′H-spiro[cyclohexane-1,7′-indolo[1,2-a]quinazolin]-10′-yl)piperidin-1-yl)methyl)phenyl)-1H-1,2,3-triazol-1-yl)-2-cyclohexylacetyl)-4-hydroxy-N—((R)-1-(4-(4-methylthiazol-5-yl)phenyl)-2-morpholinoethyl)pyrrolidine-2-carboxamide], the DC50 in assay [1] was greater than 1000 nM; in assay [2] (setting [3]) it was 100 to 1000 nM. Further, the maximal degradation (Dmax) in assay [1] (setting [4]) was less than 50%; in assay [2] (setting [3]) it was 50 to 69%.

Consider `CC(C)(C)[C@@H](C(=O)N1C[C@H](O)C[C@H]1C(=O)N[C@@H](CN1CCOCC1)c1ccc(-c2scnc2C(F)(F)F)cc1)n1cc([C@H]2CC[C@H](CN3CCC(c4ccc5c(c4)-n4c(nc(=O)c6c(Cl)cccc64)C54CCCCC4)CC3)CC2)nn1` [Compound A167, (2S,4R)-1-((S)-2-(4-((1r,4S)-4-((4-(4′-chloro-5′-oxo-5′H-spiro[cyclohexane-1,7′-indolo[1,2-a]quinazolin]-10′-yl)piperidin-1-yl)methyl)cyclohexyl)-1H-1,2,3-triazol-1-yl)-3,3-dimethylbutanoyl)-4-hydroxy-N—((R)-2-morpholino-1-(4-(4-(trifluoromethyl)thiazol-5-yl)phenyl)ethyl)pyrrolidine-2-carboxamide], for which the 50% degradation concentration (DC50) in assay [1] and in assay [2] (setting [3]) was greater than 1000 nM throughout. In addition, the Dmax in assay [1] (setting [4]) and in assay [2] (setting [3]) was less than 50% each time.

Turning to `Cc1ncsc1-c1ccc([C@H](CC(=O)N2CCC(CN3CCC(c4ccc5c(c4)-n4c(nc(=O)c6c(Br)cccc64)C54CCCCC4)CC3)CC2)NC(=O)[C@@H]2C[C@@H](O)CN2C(=O)[C@@H](n2cc(C3CC3)nn2)C(C)(C)C)cc1` [Compound A141, (2S,4R)—N—((S)-3-(4-((4-(4′-bromo-5′-oxo-5′H-spiro[cyclohexane-1,7′-indolo[1,2-a]quinazolin]-10′-yl)piperidin-1-yl)methyl)piperidin-1-yl)-1-(4-(4-methylthiazol-5-yl)phenyl)-3-oxopropyl)-1-((S)-2-(4-cyclopropyl-1H-1,2,3-triazol-1-yl)-3,3-dimethylbutanoyl)-4-hydroxypyrrolidine-2-carboxamide], the DC50 in assay [1] and in assay [2] (setting [3]) was less than 10 nM in each case. Moreover, the Dmax in assay [1] (setting [4]) and in assay [2] (setting [3]) was greater than 90% each time.

As to `Cc1ncsc1-c1ccc([C@H](CN2CC3(COC3)C2)NC(=O)[C@@H]2C[C@@H](O)CN2C(=O)[C@@H](n2cc([C@H]3CC[C@H](CN4CCC(c5ccc6c(c5)-n5c(nc(=O)c7c(Cl)cccc75)C6(C)C)CC4)CC3)nn2)C(C)(C)C)cc1` [Compound A98, (2S,4R)-1-((S)-2-(4-((1r,4S)-4-((4-(4-chloro-7,7-dimethyl-5-oxo-5,7-dihydroindolo[1,2-a]quinazolin-10-yl)piperidin-1-yl)methyl)cyclohexyl)-1H-1,2,3-triazol-1-yl)-3,3-dimethylbutanoyl)-4-hydroxy-N—((R)-1-(4-(4-methylthiazol-5-yl)phenyl)-2-(2-oxa-6-azaspiro[3.3]heptan-6-yl)ethyl)pyrrolidine-2-carboxamide], the DC50 is greater than 1000 nM in assay [1] and less than 10 nM in assay [2] (setting [3]). Also, the greatest degradation seen (Dmax) was less than 50% in assay [1] (setting [4]) and greater than 90% in assay [2] (setting [3]).

Regarding `COCCOCCOCCOCCOC[C@H](NC(=O)[C@@H]1C[C@@H](O)CN1C(=O)[C@@H](n1cc([C@H]2CC[C@H](CN3CCC(c4ccc5c(c4)-n4c(nc(=O)c6c(Cl)cccc64)C5(C)C)CC3)CC2)nn1)C(C)(C)C)c1ccc(-c2scnc2C)cc1` [Compound A151, (2S,4R)-1-((S)-2-(4-((1r,4S)-4-((4-(4-chloro-7,7-dimethyl-5-oxo-5,7-dihydroindolo[1,2-a]quinazolin-10-yl)piperidin-1-yl)methyl)cyclohexyl)-1H-1,2,3-triazol-1-yl)-3,3-dimethylbutanoyl)-4-hydroxy-N—((R)-16-(4-(4-methylthiazol-5-yl)phenyl)-2,5,8,11,14-pentaoxahexadecan-16-yl)pyrrolidine-2-carboxamide], the DC50 is greater than 1000 nM in assay [1] and less than 10 nM in assay [2] (setting [3]). In addition, the results for the Dmax in assay [1] (setting [4]) and in assay [2] (setting [3]) were less than 50% and greater than 90%, respectively.

Regarding `Cc1ncsc1-c1ccc([C@H](C)NC(=O)[C@@H]2C[C@@H](O)CN2C(=O)[C@@H](n2cc([C@H]3CC[C@H](CN4CCC(c5ccc6c(n5)-n5c(nc(=O)c7c(Cl)cccc75)C65CCCCC5)CC4)CC3)nn2)C(C)(C)C)cc1` [Compound A78, (2S,4R)-1-((S)-2-(4-((1r,4S)-4-((4-(4′-chloro-5′-oxo-5′H-spiro[cyclohexane-1,7′-pyrido[3′,2′: 4,5]pyrrolo[1,2-a]quinazolin]-10′-yl)piperidin-1-yl)methyl)cyclohexyl)-1H-1,2,3-triazol-1-yl)-3,3-dimethylbutanoyl)-4-hydroxy-N—((S)-1-(4-(4-methylthiazol-5-yl)phenyl)ethyl)pyrrolidine-2-carboxamide], the 50% degradation concentration (DC50) in assay [1] was greater than 1000 nM; in assay [2] (setting [3]), 10 to 100 nM. In addition, the maximal degradation (Dmax) in assay [2] (HeLa) lay within 70 to 90%.

(Values after patent US20260092071A1, “COMPOUNDS AND COMPOSITIONS AS SMARCA2/4 DEGRADERS AND USES THEREOF” (REGENTS OF THE UNIVERSITY OF MICHIGAN, priority 2022, published 2026).)
